# From patent US10647680B2, “Urea compound, preparation method therefor and medical use thereof” (Ancureall Pharmaceutical (Shanghai) Co., Ltd., priority 2016, dated 2020)
# Structures can show the parent of a compound that is named as a salt.
# Legend:
# [1] = system: OCI-AML3 (NPMc+ mutant type); assay: In vitro growth inhibition (GI50), OCI-AML3; assay type: cell-based; settings: Homo sapiens, OCI-AML-3; Cell lines of leukemia; read-out: GI 50 OCI- AML3 NPMc+
# Excerpt: (§1) 1. Cell Lines and Cell Cultures
# (§2) Tumor cell line is an effective cell model for studying the inhibition of tumor cell growth or proliferation in vitro. In the present invention, a representative tumor cell line was selected to determine the cell growth inhibition activity of the present compound. All cell lines used were from ATCC, DSMZ, and the Cell Bank of the Chinese Academy of Sciences. Cell culture conditions and methods were in accordance with the requirements of each cell line. Cells were subcultured in vitro for no more than 3 passages each time, and as required, single-clone purification and identification of cell lines could be carried out.
# (§3) The cell culture media used were RPMI1640 (Gibco), MEM (Gibco), McCOY'S5A (Gibco), and IMDM (Gibco). The complete medium was prepared by supplement with 5˜20% fetal calf serum (Gibco), 1% double-antibiotics (10000 units/mL penicillin and 10000 units/mL), 2 mM glutamine or 1 mM sodium pyruvate, respectively.
# (§4) The human acute […] monomonocyte leukemia cell line MV4-11 (FLT3 ITD+/+ mutant type, ATCC) was cultured in a complete medium comprising 1×IMDM and 10% FBS. Human acute myeloid leukemia cell line MOLM-13 (FLT3 ITD+/− mutant type, DSMZ), human acute lymphoblastic leukemia cell line RS4; 11 (FLT3 wild type, ATCC), human chronic granulocytic leukemia cell line K562 (FLT3 negative expression, positive expression of BCR-ABL fusion protein, ATCC), human promyelocytic leukemia cell line HL-60 (FLT3 wild type, ATCC), human B lymphoblastic leukemia cell line RAMOS (positive expression of Brutons tyrosine protein kinase, ATCC), human acute myeloid leukemia cell line Kasumi-1 (c-Kit N822K mutant type, ATCC), human acute monocytic leukemia cell line U937 (FLT3 wild-type, ATCC), human acute myeloid leukemia cell line OCI-AML3 (NPMc+ mutant type, ATCC), human acute myeloid leukemia cell line KG-1 (expressing FGFR1OP2-FGFR1 fusion protein, ATCC) were cultured in a complete medium comprising 1×RPMI1640 and 10% FBS, respectively.
# (§5) The suspension cells were collected by centrifugation. The supernatant was discarded and the cell pellet was resuspended and counted. Different cell concentrations (5˜10×10^4 cells/mL) were prepared according to the growth cycle of each cell line and then seeded on a 96-well plate (Corning), 100 μL/well. The cells were incubated overnight at 37° C., 5% CO2. The compounds were added to the cells on the second day with 2 wells in parallel. The final concentration of organic solvent shall not exceed 1%. The cells were continually incubated for 3 to 5 days, and then subjected to MTT assay.
# (§6) The compound was stored in a concentration of 10 mM at −20° C. and diluted to 2- or 10-fold series prior to use.
# (§7) Dojindo CCK8 reagent kit was used as MTT assay. […] FC meter was used as microplate reader.
# (§8) For adherent cells, culture medium was removed and immediately replaced with the fresh prepared medium which contains 10% CCK8 reagent (100 μL/well). For the suspension cells, CCK8 was directly added to 10% of the final concentration. The cells were continually incubated for 1˜4 h. […] The experiment was independently repeated 1˜3 times, and subject to biological statistical analysis. 4. Experimental Results
# (§9) The initial concentration of the compound was 5,000 nM, then it was serially diluted by 2-fold or 10-fold to 0.01 nM. The GI50 value of each test compound was calculated according to the GI50 assay and calculation method. The experiments were repeated 1 to 3 times, and data were subjected to biological statistical analysis.
# [2] = system: KG-1 (expressing FGFR1OP2-FGFR1 fusion protein); assay: In vitro growth inhibition (GI50), KG-1; assay type: cell-based; settings: Homo sapiens; Cell lines of leukemia; read-out: GI 50 KG-1 FGFR1OP 2-FGFR1
# Excerpt: as §1, §2, §3, §4, §5, §6, §7, §8, §9
# [3] = system: RAMOS (positive expression of Brutons tyrosine protein kinase); assay: In vitro growth inhibition (GI50), RAMOS; assay type: cell-based; settings: Homo sapiens, Cell lines of leukemia, read-out: GI 50 Ramos BTK
# Excerpt: as §1, §2, §3, §4, §5, §6, §7, §8, §9
# [4] = system: U937 (FLT3 wild-type); assay: In vitro growth inhibition (GI50), U937; assay type: cell-based; settings: Homo sapiens, U-937; Cell lines of leukemia; read-out: GI 50 U937 FLT 3(WT)
# Excerpt: as §1, §2, §3, §4, §5, §6, §7, §8, §9
# [5] = system: Kasumi-1 (c-Kit N822K mutant type); assay: In vitro growth inhibition (GI50), Kasumi-1; assay type: cell-based; settings: Homo sapiens, Cell lines of leukemia, read-out: GI 50 Kasumi-1 Kit (N822K)
# Excerpt: as §1, §2, §3, §4
# as §5, with “Adherent cells were digested with 0.25% pancreatin-EDTA (Gibco). The suspension” for “The suspension”
# (§10) The compound of the present invention and the control compound were dissolved in DMSO (Sigma) respectively, with the purity of more than 98%. The compound was stored in a concentration of 10 mM at −20° C. and diluted to 2- or 10-fold series prior to use.
# (§11) Dojindo CCK8 reagent kit was used as MTT assay. THERMO […] FC meter was used as microplate reader.
# (§12) For adherent cells, culture medium was removed and immediately replaced with the fresh prepared medium which contains 10% CCK8 reagent (100 μL/well). For the suspension cells, CCK8 was directly added to 10% of the final concentration. The cells were continually incubated for 1˜4 h. When a dark yellow color could be observed in the solvent control wells, the absorbance value at OD450 nm was measured and the cell growth rate was calculated according to the following formula: Cell Growth Rate (%)=100*(T−T0)/(C−T0) T=optical density of drug treatment cell well—optical density of blank control well; T0=optical density of cell well before drug treatment—optical density of blank control well; C=optical density of cell well of solvent control group—optical density of blank control well. The concentration value of 50% inhibition of cell growth (GI50) was calculated according to the drug concentration and cell growth rate curve. […]
# [6] = system: RS4; 11 (FLT3 wild type); assay: In vitro growth inhibition (GI50), RS4; 11; assay type: cell-based, human; settings: Homo sapiens, RS4-11; Cell lines of leukemia; read-out: GI 50 RS4: 11 FLT3 (WT)
# Excerpt: as §1, §2, §3, §4, §5, §6, §7, §8, §9
# [7] = system: HL-60 (FLT3 wild type); assay: In vitro growth inhibition (GI50), HL-60; assay type: cell-based; settings: Homo sapiens, Cell lines of leukemia, read-out: GI 50 HL60 FLT3 (WT)
# Excerpt: as §1, §2, §3, §4
# as §5, with “Adherent cells were digested with 0.25% pancreatin-EDTA (Gibco). The suspension” for “The suspension”
# as §10, §11, §12
# [8] = system: MOLM-13 (FLT3 ITD+/− mutant type); assay: In vitro growth inhibition (GI50), MOLM-13; assay type: cell-based, human; settings: Homo sapiens, MOLM-13; Cell lines of leukemia; read-out: GI 50 MOLM-13 FLT3 (ITD+/−)
# Excerpt: as §1, §2, §3, §4, §5, §6, §7, §8, §9
# [9] = system: K562 (FLT3 negative expression, positive expression of BCR-ABL fusion protein); assay: In vitro growth inhibition (GI50), K562; assay type: cell-based; settings: Homo sapiens, Cell lines of leukemia, read-out: GI 50 K562 BCR-ABL
# Excerpt: as §1, §2, §3, §4, §5, §6, §7, §8, §9
# [10] = system: MV4-11 (FLT3 ITD+/+ mutant type); assay: In vitro growth inhibition (GI50), MV4-11; assay type: cell-based, human; settings: Homo sapiens, MV4-11; Cell lines of leukemia; read-out: GI 50 MV4-11 FLT3 (ITD +/+)
# Excerpt: as §1, §2, §3, §4, §5, §6, §7, §8, §9
GI50 [1],GI50 [3],GI50 [4],GI50 [6],GI50 [7],GI50 [8],GI50 [9],GI50 [10],Compound,GI50 [2],GI50 [5]
> 1 µM,> 1 µM,,,,,,,"CC(C)(C)c1cc(NC(=O)Nc2ccc(-c3cn4c(n3)sc3cc(OCCN5CCOCC5)ccc34)cc2)no1 [AC220, N-(5-tert-butyl-isoxazol-3-yl)-N′-{4-[7-(2-morpholin-4-yl-ethoxy)imidazo[2,1-b][1,3]benzothiazol-2-yl]phenyl}urea dihydrochloride, reference compound]",> 1 µM,
> 1 µM,> 1 µM,> 1 µM,> 1 µM,> 1 µM,> 1 µM,> 1 µM,> 1 µM,"O=C(Nc1ccc(-n2cnc3ccccc32)cc1)Nc1ccon1 [Compound 1, 1-(4-benzimidazol-1-yl-phenyl)-3-isoxazol-3-yl-urea]",> 1 µM,> 1 µM
> 1 µM,> 1 µM,> 1 µM,> 1 µM,> 1 µM,> 1 µM,> 1 µM,> 1 µM,"Cc1cc(NC(=O)Nc2ccc(-n3cnc4ccccc43)cc2)no1 [Compound 2, 1-(4-benzimidazol-1-yl-phenyl)-3-(5-methyl-isoxazol-3-yl)-urea]",> 1 µM,> 1 µM
> 1 µM,> 1 µM,> 1 µM,> 1 µM,> 1 µM,0.0001 to 0.001 µM,> 1 µM,0.0001 to 0.001 µM,"CC(C)(C)c1cc(NC(=O)Nc2ccc(-n3cnc4ccccc43)cc2)no1 [Compound 3, 1-(4-benzimidazol-1-yl-phenyl)-3-(5-tert-butyl-isoxazol-3-yl)-urea]",> 1 µM,> 1 µM
> 1 µM,> 1 µM,> 1 µM,> 1 µM,> 1 µM,0.0001 to 0.001 µM,> 1 µM,0.0001 to 0.001 µM,"COc1ccc2c(c1)ncn2-c1ccc(NC(=O)Nc2cc(C(C)(C)C)on2)cc1 [Compound 5, 1-(5-tert-butyl-isoxazol-3-yl)-3-[4-(5-methoxyl-benzimidazol-1-yl)-phenyl]-urea]",> 1 µM,> 1 µM
> 1 µM,,> 1 µM,0.1 to 1 µM,> 1 µM,0.0001 to 0.001 µM,0.1 to 1 µM,0.0001 to 0.001 µM,"CC(C)(C)c1cc(NC(=O)Nc2ccc(-n3cnc4cc(OCCOCCO)ccc43)cc2)no1 [Compound 14, 1-(5-tert-butyl-isoxazol-3-yl)-3-(4-{5-[2-(2-hydroxy-ethoxyl)-ethoxyl]-benzimidazol-1-yl}-phenyl)-urea]",> 1 µM,> 1 µM
> 1 µM,> 1 µM,> 1 µM,> 1 µM,> 1 µM,0.0001 to 0.001 µM,,0.0001 to 0.001 µM,"COCCOc1ccc2c(c1)ncn2-c1ccc(NC(=O)Nc2cc(C(C)(C)C)nn2C)cc1 [Compound 101, 1-(5-tert-butyl-2-methyl-2H-pyrazol-3-yl)-3-{4-[5-(2-methoxyl-ethoxyl)-benzimidazol-1-yl]-phenyl}urea]",,> 1 µM
> 1 µM,> 1 µM,> 1 µM,> 1 µM,> 1 µM,0.0001 to 0.001 µM,,0.0001 to 0.001 µM,Cn1nc(C(C)(C)C)cc1NC(=O)Nc1ccc(-n2cnc3cc(OCCN4CCOCC4)ccc32)cc1 [Compound 102],,> 1 µM
> 1 µM,> 1 µM,> 1 µM,> 1 µM,> 1 µM,,> 1 µM,,"Cc1cc(N)nn1C(=O)Nc1ccc(-n2cnc3ccccc32)cc1 [Compound 113, 3-amino-5-methylpyrazol-1-carboxylic acid (4-benzimidazol-1-yl-phenyl)-amide]",> 1 µM,> 1 µM
